Laboratory results taken from article PMC5078040 (Oncotarget, 2016).

What was measured:
RIPK5 = target: T1, RIPK5 (Homo sapiens, UniProt Q6XUX3); experiment: KinomeScan; format: binding; conditions: 1uM
T1 construct: purchased DiscoveRx KINOMEscan

BRSK2 = target: T2, BRSK2 (Homo sapiens, UniProt Q8IWQ3); experiment: KinomeScan; format: binding; conditions: 1uM
T2 construct: purchased DiscoveRx KINOMEscan

CAMK1 = target: T3, CAMK1 (Homo sapiens, UniProt Q14012); experiment: KinomeScan; format: binding; conditions: 1uM
T3 construct: purchased DiscoveRx KINOMEscan

GCN2(Kin.Dom.2,S808G) = target: T4, GCN2(Kin.Dom.2,S808G) (Homo sapiens, UniProt Q9P2K8, S808G); experiment: KinomeScan; format: binding; conditions: 1uM
T4 construct: GCN2(Kin.Dom.2,S808G); purchased DiscoveRx KINOMEscan

FLT3(R834Q) = target: T5, FLT3(R834Q) (Homo sapiens, UniProt P36888, R834Q); experiment: KinomeScan; format: binding; conditions: 1uM
T5 construct: purchased DiscoveRx KINOMEscan

CASK = target: T6, CASK (Homo sapiens, UniProt O14936); experiment: KinomeScan; format: binding; conditions: 1uM
T6 construct: purchased DiscoveRx KINOMEscan

RIPK4 = target: T7, RIPK4 (Homo sapiens, UniProt P57078); experiment: KinomeScan; format: binding; conditions: 1uM
T7 construct: purchased DiscoveRx KINOMEscan

GRK4 = target: T8, GRK4 (Homo sapiens, UniProt P32298); experiment: KinomeScan; format: binding; conditions: 1uM
T8 construct: purchased DiscoveRx KINOMEscan

SLK = target: T9, SLK (Homo sapiens, UniProt Q9H2G2); experiment: KinomeScan; format: binding; conditions: 1uM
T9 construct: purchased DiscoveRx KINOMEscan

PRKR = target: T10, PRKR (Homo sapiens, UniProt P19525); experiment: KinomeScan; format: binding; conditions: 1uM
T10 construct: purchased DiscoveRx KINOMEscan

CDK3 = target: T11, CDK3 (Homo sapiens, UniProt Q00526); experiment: KinomeScan; format: binding; conditions: 1uM
T11 construct: purchased DiscoveRx KINOMEscan

ERK8 = target: T12, ERK8 (Homo sapiens, UniProt Q8TD08); experiment: KinomeScan; format: binding; conditions: 1uM
T12 construct: purchased DiscoveRx KINOMEscan

JNK3 = target: T13, JNK3 (Homo sapiens, UniProt P53779); experiment: KinomeScan; format: binding; conditions: 1uM
T13 construct: purchased DiscoveRx KINOMEscan

PFTAIRE2 = target: T14, PFTAIRE2 (Homo sapiens, UniProt Q96Q40); experiment: KinomeScan; format: binding; conditions: 1uM
T14 construct: purchased DiscoveRx KINOMEscan

MLK1 = target: T15, MLK1 (Homo sapiens, UniProt P80192); experiment: KinomeScan; format: binding; conditions: 1uM
T15 construct: purchased DiscoveRx KINOMEscan

CDK11 = target: T16, CDK11 (Homo sapiens, UniProt Q9BWU1); experiment: KinomeScan; format: binding; conditions: 1uM
T16 construct: purchased DiscoveRx KINOMEscan

AKT1 = target: T17, AKT1 (Homo sapiens, UniProt P31749); experiment: KinomeScan; format: binding; conditions: 1uM
T17 construct: purchased DiscoveRx KINOMEscan

p38-alpha = target: T18, p38-alpha (Homo sapiens, UniProt Q16539); experiment: KinomeScan; format: binding; conditions: 1uM
T18 construct: purchased DiscoveRx KINOMEscan

EPHA2 = target: T19, EPHA2 (Homo sapiens, UniProt P29317); experiment: KinomeScan; format: binding; conditions: 1uM
T19 construct: purchased DiscoveRx KINOMEscan

PIK3CA(E545K) = target: T20, PIK3CA(E545K) (Homo sapiens, UniProt P42336, E545K); experiment: KinomeScan; format: binding; conditions: 1uM
T20 construct: purchased DiscoveRx KINOMEscan

AKT3 = target: T21, AKT3 (Homo sapiens, UniProt Q9Y243); experiment: KinomeScan; format: binding; conditions: 1uM
T21 construct: purchased DiscoveRx KINOMEscan

EGFR(L858R,T790M) = target: T22, EGFR(L858R,T790M) (Homo sapiens, UniProt P00533, L858R/T790M); experiment: KinomeScan; format: binding; conditions: 1uM
T22 construct: purchased DiscoveRx KINOMEscan

PFTK1 = target: T23, PFTK1 (Homo sapiens, UniProt O94921); experiment: KinomeScan; format: binding; conditions: 1uM
T23 construct: purchased DiscoveRx KINOMEscan

ERK3 = target: T24, ERK3 (Homo sapiens, UniProt Q16659); experiment: KinomeScan; format: binding; conditions: 1uM
T24 construct: purchased DiscoveRx KINOMEscan

RAF1 = target: T25, RAF1 (Homo sapiens, UniProt P04049); experiment: KinomeScan; format: binding; conditions: 1uM
T25 construct: purchased DiscoveRx KINOMEscan

MYLK4 = target: T26, MYLK4 (Homo sapiens, UniProt Q86YV6); experiment: KinomeScan; format: binding; conditions: 1uM
T26 construct: purchased DiscoveRx KINOMEscan

MAP3K2 = target: T27, MAP3K2 (Homo sapiens, UniProt Q9Y2U5); experiment: KinomeScan; format: binding; conditions: 1uM
T27 construct: purchased DiscoveRx KINOMEscan

PIK3CA = target: T28, PIK3CA (Homo sapiens, UniProt P42336); experiment: KinomeScan; format: binding; conditions: 1uM
T28 construct: purchased DiscoveRx KINOMEscan

[1] = target: T29, RSK2(Kin.Dom.2-C-terminal) (Homo sapiens, UniProt P51812); experiment: KinomeScan; format: binding; conditions: 1uM
T29 construct: RSK2(Kin.Dom.2-C-terminal); purchased DiscoveRx KINOMEscan

MYO3A = target: T30, MYO3A (Homo sapiens, UniProt Q8NEV4); experiment: KinomeScan; format: binding; conditions: 1uM
T30 construct: purchased DiscoveRx KINOMEscan

MEK2 = target: T31, MEK2 (Homo sapiens, UniProt P36507); experiment: KinomeScan; format: binding; conditions: 1uM
T31 construct: purchased DiscoveRx KINOMEscan

DYRK1B = target: T32, DYRK1B (Homo sapiens, UniProt Q9Y463); experiment: KinomeScan; format: binding; conditions: 1uM
T32 construct: purchased DiscoveRx KINOMEscan

SgK110 = target: T33, SgK110 (Homo sapiens, UniProt P0C264); experiment: KinomeScan; format: binding; conditions: 1uM
T33 construct: purchased DiscoveRx KINOMEscan

PI4KA = target: T34, PI4KA (Homo sapiens, UniProt P42356); experiment: ADP-glo biochemical assay
T34 construct: purchased Invitrogen
Protocol: The reaction in each tube was started immediately by adding ATP and kept going for an hour under 37°C. After the tube cooled for 5 minutes at room temperature, 5 μL solvent reactions were carried out in a 384-well plate. Then 5 μL of ADP-Glo™ reagent was added into each well to stop the reaction and consume the remaining ADP within 40 minutes. At the end, 10 μL of kinase detection reagent was added into the well and incubated for 30 minutes to produce a luminescence signal. Luminescence signal was measured with an automated plate reader (Perkin-Elmer Envision) and each measurement was performed in triplicate.

TESK1 = target: T35, TESK1 (Homo sapiens, UniProt Q15569); experiment: KinomeScan; format: binding; conditions: 1uM
T35 construct: purchased DiscoveRx KINOMEscan

FLT3(K663Q) = target: T36, FLT3(K663Q) (Homo sapiens, UniProt P36888, K663Q); experiment: KinomeScan; format: binding; conditions: 1uM
T36 construct: purchased DiscoveRx KINOMEscan

PFPK5(P.falciparum) = target: T37, PFPK5(P.falciparum) (Plasmodium falciparum, UniProt P61075); experiment: KinomeScan; format: binding; conditions: 1uM
T37 construct: purchased DiscoveRx KINOMEscan

EPHA8 = target: T38, EPHA8 (Homo sapiens, UniProt P29322); experiment: KinomeScan; format: binding; conditions: 1uM
T38 construct: purchased DiscoveRx KINOMEscan

EPHA4 = target: T39, EPHA4 (Homo sapiens, UniProt P54764); experiment: KinomeScan; format: binding; conditions: 1uM
T39 construct: purchased DiscoveRx KINOMEscan

PAK1 = target: T40, PAK1 (Homo sapiens, UniProt Q13153); experiment: KinomeScan; format: binding; conditions: 1uM
T40 construct: purchased DiscoveRx KINOMEscan

DCAMKL2 = target: T41, DCAMKL2 (Homo sapiens, UniProt Q8N568); experiment: KinomeScan; format: binding; conditions: 1uM
T41 construct: purchased DiscoveRx KINOMEscan

SGK2 = target: T42, SGK2 (Homo sapiens, UniProt Q9HBY8); experiment: KinomeScan; format: binding; conditions: 1uM
T42 construct: purchased DiscoveRx KINOMEscan

T7 sequence (P57078 whole entry): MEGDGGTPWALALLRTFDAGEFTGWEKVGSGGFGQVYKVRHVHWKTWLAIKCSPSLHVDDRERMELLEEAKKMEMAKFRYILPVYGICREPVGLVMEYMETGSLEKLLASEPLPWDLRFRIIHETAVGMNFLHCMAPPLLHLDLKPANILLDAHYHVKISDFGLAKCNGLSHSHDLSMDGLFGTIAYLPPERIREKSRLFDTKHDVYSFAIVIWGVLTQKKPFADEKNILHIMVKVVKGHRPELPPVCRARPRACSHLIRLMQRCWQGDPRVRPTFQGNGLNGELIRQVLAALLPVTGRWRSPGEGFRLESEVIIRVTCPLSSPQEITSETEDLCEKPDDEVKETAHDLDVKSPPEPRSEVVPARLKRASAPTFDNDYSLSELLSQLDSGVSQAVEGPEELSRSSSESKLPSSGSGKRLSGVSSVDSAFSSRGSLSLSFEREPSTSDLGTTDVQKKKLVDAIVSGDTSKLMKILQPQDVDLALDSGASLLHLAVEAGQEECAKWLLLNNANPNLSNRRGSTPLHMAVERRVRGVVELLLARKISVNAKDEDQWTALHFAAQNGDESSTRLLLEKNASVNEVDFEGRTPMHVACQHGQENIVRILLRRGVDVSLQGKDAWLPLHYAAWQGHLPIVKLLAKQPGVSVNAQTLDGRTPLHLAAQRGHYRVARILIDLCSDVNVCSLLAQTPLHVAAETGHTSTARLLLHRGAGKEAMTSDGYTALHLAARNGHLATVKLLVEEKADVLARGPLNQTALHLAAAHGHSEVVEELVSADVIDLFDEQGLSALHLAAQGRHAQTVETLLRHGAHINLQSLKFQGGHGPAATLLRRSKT
T10 sequence (P19525 whole entry): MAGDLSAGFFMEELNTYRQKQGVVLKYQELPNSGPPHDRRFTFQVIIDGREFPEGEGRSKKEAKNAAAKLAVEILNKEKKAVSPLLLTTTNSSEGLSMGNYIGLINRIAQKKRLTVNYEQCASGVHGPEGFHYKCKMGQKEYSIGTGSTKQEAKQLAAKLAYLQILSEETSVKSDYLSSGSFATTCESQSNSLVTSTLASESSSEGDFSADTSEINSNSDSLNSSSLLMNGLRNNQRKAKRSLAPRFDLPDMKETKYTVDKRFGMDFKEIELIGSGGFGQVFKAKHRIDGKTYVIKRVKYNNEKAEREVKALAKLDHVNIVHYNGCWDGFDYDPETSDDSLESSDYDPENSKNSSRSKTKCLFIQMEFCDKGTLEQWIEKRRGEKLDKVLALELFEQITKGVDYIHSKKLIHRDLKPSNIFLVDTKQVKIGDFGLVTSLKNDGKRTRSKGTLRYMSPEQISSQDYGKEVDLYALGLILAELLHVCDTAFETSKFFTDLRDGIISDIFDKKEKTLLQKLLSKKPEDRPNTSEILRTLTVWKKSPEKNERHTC
T32 sequence (Q9Y463 whole entry): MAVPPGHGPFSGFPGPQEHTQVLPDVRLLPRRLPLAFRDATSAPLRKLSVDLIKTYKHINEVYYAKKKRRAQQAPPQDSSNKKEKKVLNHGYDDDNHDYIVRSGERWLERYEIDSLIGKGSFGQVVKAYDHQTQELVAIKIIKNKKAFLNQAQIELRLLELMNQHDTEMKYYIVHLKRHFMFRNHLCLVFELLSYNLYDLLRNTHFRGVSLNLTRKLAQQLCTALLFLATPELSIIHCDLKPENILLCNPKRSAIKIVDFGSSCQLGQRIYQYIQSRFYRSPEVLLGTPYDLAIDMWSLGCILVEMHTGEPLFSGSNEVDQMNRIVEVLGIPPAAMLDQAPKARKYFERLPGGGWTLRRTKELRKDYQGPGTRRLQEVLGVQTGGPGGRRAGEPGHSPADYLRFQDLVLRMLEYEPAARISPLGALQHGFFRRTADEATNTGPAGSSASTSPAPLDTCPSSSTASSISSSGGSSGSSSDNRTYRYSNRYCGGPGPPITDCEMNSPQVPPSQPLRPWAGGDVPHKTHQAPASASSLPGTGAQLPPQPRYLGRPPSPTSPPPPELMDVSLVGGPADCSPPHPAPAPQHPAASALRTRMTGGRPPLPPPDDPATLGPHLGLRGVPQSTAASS
T9 sequence (Q9H2G2 whole entry): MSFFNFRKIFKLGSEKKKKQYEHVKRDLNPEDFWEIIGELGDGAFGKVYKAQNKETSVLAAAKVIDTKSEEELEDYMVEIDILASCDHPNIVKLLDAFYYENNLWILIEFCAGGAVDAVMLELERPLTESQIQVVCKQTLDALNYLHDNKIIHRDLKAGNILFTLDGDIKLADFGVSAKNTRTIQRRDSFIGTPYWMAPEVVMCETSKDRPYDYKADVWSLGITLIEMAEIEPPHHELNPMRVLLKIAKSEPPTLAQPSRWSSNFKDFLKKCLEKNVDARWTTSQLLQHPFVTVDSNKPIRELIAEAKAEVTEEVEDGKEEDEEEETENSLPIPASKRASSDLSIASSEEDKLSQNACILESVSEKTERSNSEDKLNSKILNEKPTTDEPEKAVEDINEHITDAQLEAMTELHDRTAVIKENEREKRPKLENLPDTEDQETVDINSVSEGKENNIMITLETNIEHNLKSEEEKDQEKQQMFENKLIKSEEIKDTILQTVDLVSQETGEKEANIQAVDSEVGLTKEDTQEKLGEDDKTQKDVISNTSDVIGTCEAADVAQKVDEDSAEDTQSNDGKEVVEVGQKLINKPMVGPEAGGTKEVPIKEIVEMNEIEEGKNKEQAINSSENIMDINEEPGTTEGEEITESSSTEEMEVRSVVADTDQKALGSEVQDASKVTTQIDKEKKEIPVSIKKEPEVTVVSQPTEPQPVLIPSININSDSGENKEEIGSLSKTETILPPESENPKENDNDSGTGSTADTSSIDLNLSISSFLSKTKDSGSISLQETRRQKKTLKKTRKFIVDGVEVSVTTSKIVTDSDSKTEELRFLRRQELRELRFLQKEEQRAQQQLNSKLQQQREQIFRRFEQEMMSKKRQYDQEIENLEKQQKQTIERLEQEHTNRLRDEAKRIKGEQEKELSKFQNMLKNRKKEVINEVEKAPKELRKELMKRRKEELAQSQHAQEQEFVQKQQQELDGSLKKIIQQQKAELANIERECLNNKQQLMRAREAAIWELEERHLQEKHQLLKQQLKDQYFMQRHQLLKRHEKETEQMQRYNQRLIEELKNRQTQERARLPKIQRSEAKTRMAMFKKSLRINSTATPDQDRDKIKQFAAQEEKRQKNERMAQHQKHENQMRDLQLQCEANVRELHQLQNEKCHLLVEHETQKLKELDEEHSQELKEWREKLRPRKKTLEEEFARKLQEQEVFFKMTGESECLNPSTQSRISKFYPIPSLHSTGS
T28 sequence (P42336 whole entry): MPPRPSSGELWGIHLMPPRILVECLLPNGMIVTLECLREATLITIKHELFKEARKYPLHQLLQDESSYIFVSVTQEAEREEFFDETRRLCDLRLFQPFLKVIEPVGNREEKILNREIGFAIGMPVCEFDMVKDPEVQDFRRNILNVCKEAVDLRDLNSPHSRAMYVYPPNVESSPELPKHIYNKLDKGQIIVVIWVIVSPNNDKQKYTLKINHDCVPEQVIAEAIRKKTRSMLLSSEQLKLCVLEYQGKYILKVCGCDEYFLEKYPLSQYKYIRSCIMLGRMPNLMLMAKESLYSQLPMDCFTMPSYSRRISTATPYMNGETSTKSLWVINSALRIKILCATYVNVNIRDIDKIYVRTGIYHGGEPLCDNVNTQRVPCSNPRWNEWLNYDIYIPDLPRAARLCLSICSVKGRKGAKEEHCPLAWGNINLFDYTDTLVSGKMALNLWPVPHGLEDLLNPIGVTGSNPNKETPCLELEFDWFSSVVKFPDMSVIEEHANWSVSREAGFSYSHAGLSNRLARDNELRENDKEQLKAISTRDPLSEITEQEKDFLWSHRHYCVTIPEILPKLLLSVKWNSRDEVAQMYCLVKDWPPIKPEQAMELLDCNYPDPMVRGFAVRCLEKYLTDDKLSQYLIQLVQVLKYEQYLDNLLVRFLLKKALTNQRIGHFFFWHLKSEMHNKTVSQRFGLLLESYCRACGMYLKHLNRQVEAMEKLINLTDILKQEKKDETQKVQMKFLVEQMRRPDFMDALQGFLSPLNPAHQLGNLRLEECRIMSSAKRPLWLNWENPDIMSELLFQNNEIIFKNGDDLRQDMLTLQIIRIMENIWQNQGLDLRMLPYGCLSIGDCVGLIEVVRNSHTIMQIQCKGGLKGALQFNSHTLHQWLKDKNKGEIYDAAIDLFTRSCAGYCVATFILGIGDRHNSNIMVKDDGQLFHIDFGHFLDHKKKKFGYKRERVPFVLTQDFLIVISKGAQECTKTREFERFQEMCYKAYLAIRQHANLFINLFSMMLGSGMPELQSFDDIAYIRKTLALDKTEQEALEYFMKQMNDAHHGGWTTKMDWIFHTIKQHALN
T25 sequence (P04049 whole entry): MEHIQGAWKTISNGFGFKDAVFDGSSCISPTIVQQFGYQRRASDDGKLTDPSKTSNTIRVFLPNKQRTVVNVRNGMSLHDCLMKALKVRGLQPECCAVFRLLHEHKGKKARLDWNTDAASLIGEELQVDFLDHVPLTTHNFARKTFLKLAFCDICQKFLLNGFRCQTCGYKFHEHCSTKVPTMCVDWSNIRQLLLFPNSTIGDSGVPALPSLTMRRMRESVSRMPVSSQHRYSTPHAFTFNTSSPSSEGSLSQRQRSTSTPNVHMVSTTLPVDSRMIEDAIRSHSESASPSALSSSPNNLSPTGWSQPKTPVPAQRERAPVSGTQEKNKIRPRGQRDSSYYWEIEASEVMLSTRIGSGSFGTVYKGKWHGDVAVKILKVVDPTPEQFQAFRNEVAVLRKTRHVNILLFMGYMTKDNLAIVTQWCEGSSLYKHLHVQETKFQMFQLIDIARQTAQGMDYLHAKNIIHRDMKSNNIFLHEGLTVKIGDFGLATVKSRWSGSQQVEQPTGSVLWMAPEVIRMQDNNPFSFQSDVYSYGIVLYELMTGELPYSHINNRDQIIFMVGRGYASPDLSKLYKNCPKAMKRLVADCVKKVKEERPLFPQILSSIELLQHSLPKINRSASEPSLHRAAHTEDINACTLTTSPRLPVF
T20 sequence (P42336 whole entry E545K): as the sequence (P42336 whole entry) above, with E545K counted along it

With Cc1nc(NC(=O)[C@@H](N)C(C)C)sc1-c1cnc(Cl)c(NS(=O)(=O)c2ccccc2)c1 [PI3KD-IN-015] the “KinomeScan RIPK5” value (RIPK5) was 83, the “KinomeScan BRSK2” value (BRSK2) was 100 and the “KinomeScan CAMK1” value (CAMK1) was 98. For the same molecule, the “KinomeScan GCN2(Kin.Dom.2,S808G)” value (GCN2(Kin.Dom.2,S808G)) was 100, the “KinomeScan FLT3(R834Q)” value (FLT3(R834Q)) was 84 and the “KinomeScan CASK” value (CASK) was 95. The “KinomeScan RIPK4” value (RIPK4) was 100, the “KinomeScan GRK4” value (GRK4) was 92 and the “KinomeScan SLK” value (SLK) was 100. For the same molecule, the “KinomeScan PRKR” value (PRKR) was 100, the “KinomeScan CDK3” value (CDK3) was 100 and the “KinomeScan ERK8” value (ERK8) was 98. For the same molecule, the “KinomeScan JNK3” value (JNK3) was 100, the “KinomeScan PFTAIRE2” value (PFTAIRE2) was 100 and the “KinomeScan MLK1” value (MLK1) was 100. For the same molecule, the “KinomeScan CDK11” value (CDK11) was 100, the “KinomeScan AKT1” value (AKT1) was 91 and the “KinomeScan p38-alpha” value (p38-alpha) was 100. The “KinomeScan EPHA2” value (EPHA2) was 100, the “KinomeScan PIK3CA(E545K)” value (PIK3CA(E545K)) was 6.4 and the “KinomeScan AKT3” value (AKT3) was 89. For the same molecule, the “KinomeScan EGFR(L858R,T790M)” value (EGFR(L858R,T790M)) was 100, the “KinomeScan PFTK1” value (PFTK1) was 100 and the “KinomeScan ERK3” value (ERK3) was 96. The “KinomeScan RAF1” value (RAF1) was 100, the “KinomeScan MYLK4” value (MYLK4) was 80 and the “KinomeScan MAP3K2” value (MAP3K2) was 100. For the same molecule, the “KinomeScan PIK3CA” value (PIK3CA) was 7.2, the “KinomeScan RSK2(Kin.Dom.2-C-terminal)” value [1] was 100 and the “KinomeScan MYO3A” value (MYO3A) was 94. The “KinomeScan MEK2” value (MEK2) was 94, the “KinomeScan DYRK1B” value (DYRK1B) was 100 and the “KinomeScan SgK110” value (SgK110) was 100. The IC50 (PI4KA) was > 10 µM, the “KinomeScan TESK1” value (TESK1) was 100 and the “KinomeScan FLT3(K663Q)” value (FLT3(K663Q)) was 100. For the same molecule, the “KinomeScan PFPK5(P.falciparum)” value (PFPK5(P.falciparum)) was 100, the “KinomeScan EPHA8” value (EPHA8) was 100 and the “KinomeScan EPHA4” value (EPHA4) was 100. For the same molecule, the “KinomeScan PAK1” value (PAK1) was 100, the “KinomeScan DCAMKL2” value (DCAMKL2) was 100 and the “KinomeScan SGK2” value (SGK2) was 81.
